Test results taken from ChEMBL document CHEMBL1201862, “PubChem BioAssay data set” (2004).
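Test compounds were applied to cells in 96-well plates for 48 hours at 5 doses. Here, GI50 denotes the concentration required for 50% inhibition of growth.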 The source made the active and inactive calls. Rule as the data show it: active = GI50 up to about 1.1 µM and inactive = higher.

Columns and labels:
Experiment in all cases: inhibition of tumour cell growth, NCI panel, 48 h
[1] = system: LOX IMVI
[2] = system: CCRF-CEM
[3] = system: RPMI-8226
[4] = system: HOP-18
[5] = system: UACC-257
[6] = system: OVCAR-4
[7] = system: CAKI-1
[8] = system: SNB-75
[9] = system: OVCAR-5
[10] = system: A498
[11] = system: IGROV-1
[12] = system: NCI-H226
[13] = system: ACHN
[14] = system: 786-0
[15] = system: NCI-H460
[16] = system: RXF 393
[17] = system: SK-MEL-5
[18] = system: M14
[19] = system: Malme-3M
[20] = system: HCT-116
[21] = system: COLO 205
[22] = system: SR
[23] = system: UACC-62
[24] = system: SW-620
[25] = system: SF-268
[26] = system: HOP-92
[27] = system: M19-MEL
[28] = system: SN12C
[29] = system: DLD-1
[30] = system: TK-10
[31] = system: HOP-62
[32] = system: UO-31
[33] = system: MOLT-4
[34] = system: SK-MEL-2
[35] = system: LXFL 529
[36] = system: DMS-273
[37] = system: SK-OV-3
[38] = system: NCI-H522
[39] = system: HT-29
[40] = system: SF-295
[41] = system: A549
[42] = system: U-251
[43] = system: OVCAR-8
[44] = system: HL-60
[45] = system: K562
[46] = system: DMS-114
[47] = system: HCT-15
[48] = system: NCI-H23
[49] = system: KM12
[50] = system: SF-539
[51] = system: EKVX
[52] = system: KM-20L2
[53] = system: SNB-78
[54] = system: SK-MEL-28
[55] = system: HCC 2998
[56] = system: SNB-19
[57] = system: OVCAR-3

COc1ccc(C2S/C(=C\c3ccc(OC)cc3OC)C(=O)N2NC(=O)Cc2ccccc2)cc1 (stereo not drawn)
GI50 [1]: > 100 µM (inactive)
GI50 [2]: 89.5 µM (inactive)
GI50 [3]: > 100 µM (inactive)
GI50 [4]: > 100 µM (inactive)
GI50 [5]: > 100 µM (inactive)
GI50 [6]: > 100 µM (inactive)
GI50 [7]: > 100 µM (inactive)
GI50 [8]: > 100 µM (inactive)
GI50 [9]: > 100 µM (inactive)
GI50 [10]: > 100 µM (inactive)
GI50 [11]: > 100 µM (inactive)
GI50 [12]: > 100 µM (inactive)
GI50 [13]: > 100 µM (inactive)
GI50 [14]: > 100 µM (inactive)
GI50 [15]: > 100 µM (inactive)
GI50 [16]: > 100 µM (inactive)
GI50 [17]: > 100 µM (inactive)
GI50 [18]: > 100 µM (inactive)
GI50 [19]: > 100 µM (inactive)
GI50 [20]: > 100 µM (inactive)
GI50 [21]: > 100 µM (inactive)
GI50 [22]: > 100 µM (inactive)
GI50 [23]: > 100 µM (inactive)
GI50 [24]: > 100 µM (inactive)
GI50 [25]: > 100 µM (inactive)
GI50 [26]: > 100 µM (inactive)
GI50 [27]: > 100 µM (inactive)
GI50 [28]: > 100 µM (inactive)
GI50 [29]: > 100 µM (inactive)
GI50 [30]: > 100 µM (inactive)
GI50 [31]: > 100 µM (inactive)
GI50 [32]: > 100 µM (inactive)
GI50 [33]: > 100 µM (inactive)
GI50 [34]: > 100 µM (inactive)
GI50 [35]: > 100 µM (inactive)
GI50 [36]: > 100 µM (inactive)
GI50 [37]: > 100 µM (inactive)
GI50 [38]: > 100 µM (inactive)
GI50 [39]: > 100 µM (inactive)
GI50 [40]: > 100 µM (inactive)
GI50 [41]: > 100 µM (inactive)
GI50 [42]: > 100 µM (inactive)
GI50 [43]: > 100 µM (inactive)
GI50 [44]: 97.9 µM (inactive)
GI50 [45]: 98.9 µM (inactive)
GI50 [46]: > 100 µM (inactive)
GI50 [47]: > 100 µM
GI50 [48]: > 100 µM (inactive)
GI50 [49]: > 100 µM (inactive)
GI50 [50]: > 100 µM (inactive)

COC(=O)c1ccc(Cl)cc1NC(=O)C1CCCCC1
GI50 [51]: > 100 µM (inactive)
GI50 [3]: > 100 µM (inactive)
GI50 [5]: > 100 µM (inactive)
GI50 [6]: > 100 µM (inactive)
GI50 [7]: > 100 µM (inactive)
GI50 [9]: > 100 µM (inactive)
GI50 [12]: > 100 µM (inactive)
GI50 [13]: > 100 µM (inactive)
GI50 [14]: > 100 µM (inactive)
GI50 [52]: > 100 µM (inactive)
GI50 [16]: 20.3 µM (inactive)
GI50 [19]: > 100 µM (inactive)
GI50 [20]: > 100 µM (inactive)
GI50 [53]: > 100 µM (inactive)
GI50 [21]: > 100 µM (inactive)
GI50 [22]: > 100 µM (inactive)
GI50 [54]: > 100 µM (inactive)
GI50 [24]: > 100 µM (inactive)
GI50 [25]: > 100 µM (inactive)
GI50 [26]: > 100 µM (inactive)
GI50 [27]: > 100 µM (inactive)
GI50 [28]: > 100 µM (inactive)
GI50 [55]: > 100 µM (inactive)
GI50 [30]: 40 µM (inactive)
GI50 [32]: 3.53 µM (inactive)
GI50 [33]: > 100 µM (inactive)
GI50 [34]: > 100 µM (inactive)
GI50 [35]: > 100 µM (inactive)
GI50 [36]: > 100 µM (inactive)
GI50 [38]: > 100 µM (inactive)
GI50 [39]: > 100 µM (inactive)
GI50 [40]: > 100 µM (inactive)
GI50 [41]: > 100 µM (inactive)
GI50 [56]: > 100 µM (inactive)
GI50 [42]: > 100 µM (inactive)
GI50 [43]: > 100 µM (inactive)
GI50 [45]: > 100 µM (inactive)
GI50 [46]: > 100 µM (inactive)
GI50 [47]: > 100 µM
GI50 [48]: > 100 µM (inactive)
GI50 [57]: > 100 µM (inactive)
GI50 [49]: > 100 µM (inactive)
GI50 [50]: > 100 µM (inactive)

O=C1NC(=S)S/C1=C/c1ccco1
GI50 [51]: > 100 µM (inactive)
GI50 [1]: > 100 µM (inactive)
GI50 [5]: 46.3 µM (inactive)
GI50 [6]: > 100 µM (inactive)
GI50 [7]: > 100 µM (inactive)
GI50 [8]: > 100 µM (inactive)
GI50 [9]: > 100 µM (inactive)
GI50 [10]: 11.1 µM (inactive)
GI50 [11]: > 100 µM (inactive)
GI50 [12]: > 100 µM (inactive)
GI50 [13]: > 100 µM (inactive)
GI50 [15]: > 100 µM (inactive)
GI50 [16]: > 100 µM (inactive)
GI50 [17]: > 100 µM (inactive)
GI50 [18]: > 100 µM (inactive)
GI50 [20]: > 100 µM (inactive)
GI50 [21]: > 100 µM (inactive)
GI50 [23]: > 100 µM (inactive)
GI50 [54]: > 100 µM (inactive)
GI50 [24]: > 100 µM (inactive)
GI50 [25]: > 100 µM (inactive)
GI50 [26]: 49.4 µM (inactive)
GI50 [28]: > 100 µM (inactive)
GI50 [55]: > 100 µM (inactive)
GI50 [29]: > 100 µM (inactive)
GI50 [30]: > 100 µM (inactive)
GI50 [32]: > 100 µM (inactive)
GI50 [35]: > 100 µM (inactive)
GI50 [36]: > 100 µM (inactive)
GI50 [37]: > 100 µM (inactive)
GI50 [39]: > 100 µM (inactive)
GI50 [40]: > 100 µM (inactive)
GI50 [41]: > 100 µM (inactive)
GI50 [56]: > 100 µM (inactive)
GI50 [43]: > 100 µM (inactive)
GI50 [46]: > 100 µM (inactive)
GI50 [47]: > 100 µM
GI50 [48]: > 100 µM (inactive)
GI50 [57]: 50.1 µM (inactive)
GI50 [50]: > 100 µM (inactive)
